Peptide text beside a SMILES is read from it. * marks the point of attachment. Cbz = O=C(OCc1ccccc1)*
Assays:
Type in all cases: cell-based, murine
[1] = test system: βCTF levels in L/APP cells (L cell line overexpressing human APP695); assay: βCTF ELISA (C1/6.1 capture, JRF/AβN/25 detection) on cell lysates; details: for reduction of βCTF levels relative to control: 10 μg/ml for 6 hours (FIG. 10B); for βCTF levels: control 2.7 (FIG. 8A)
Procedure: (§1) Cell lines, cDNA constructs, and transfections. Ltk-cells (a murine fibroblast-like cell line; (S. Kit et al., 1967, J. Virol., 1(1): 238-240) were maintained at 37° C. and 5% CO2 in high glucose DMEM, (Celigro, Hedon, Va.) supplemented to contain 10% fetal bovine serum (Gemini, Woodland, Calif.), 2 mM glutamax I (Gibco/BRL, Gaithersburg, Md.), and penicillin/streptomycin (Celigro). cDNAs encoding human APP695 and human rab5 were inserted into the mammalian expression vector pcDNA3 (Invitrogen, Carlsbad, Calif.). Following transfection using lipofectin (manufacturer's protocol; Gibco/BRL), stable L cell lines overexpressing APP695 were selected in 400 μg/ml G418 (Gemini) and screened for expression. Transient transfections with rab5 were done using lipofectAMINE (Gibco/BRL) or fugene (Boehringer-Mannheim, Indianapolis, Ind.) according to the manufacturers' protocol.
(§2) Sandwich ELISAs. Sandwich ELISAs using the antibodies as presented in Table 1 were performed essentially as has been reported (C. Janus et al. Id.; R. Rozmahel et al., Neurobiology of Aging, 23:187-194; and P. M. Mathews et al., 2002, J. Biol. Chem., 277: 5299-5307), with modifications to detect cell-associated APP metabolites. The wells of Nunc-Immuno PIates (Nunc A/S, Roskilde, Denmark) were coated overnight at 4° C. using 20 μg/ml of C1/6.1 and the remaining protein binding sites were blocked by incubating with 1% Block Ace (Yukijirushi Milk, Sapporo Japan) in PBS (200 μl/well) for 4 hours at room temperature.
(§3) For the βCTF ELISA, a synthetic peptide was prepared, i.e., […], (SEQ ID NO:1), that contains both the JRF/AβN/25 epitope (SEQ ID NO:4) and the C1/6.1 epitope (SEQ ID NO:2), (see Table I). For the APP/total CTF ELISA, a glutathione S-transferase fusion protein containing the C-terminal 99 residues of human APP (GST-βPP672-770; (K. Islam and E. Levy, 1997, Am. J. Pathol. 151(1):265-71) was prepared. This fusion protein contains both the C1/6.1 and C2/7.1 epitopes. These standards, prepared as stock solutions, were dissolved in DMSO, stored at −70° C., and were further diluted in buffer containing 20 mM Na phosphate, 2 mM EDTA,. 400 mM NaCl, 0.2% BSA, 0.05% CHAPS, 0.4% Block Ace and 0.05% NaN3, pH 7.0 immediately, prior to use.
(§4) ELISA plates were incubated overnight at 4° C. with samples and standards. Samples, as described herein, were cell lysates prepared in 1% Triton X-100®, 140 mM NaCl, 25 mM Tris (pH 7.4), 0.5 mM EDTA, and protease inhibitors. Lysates were vortexed briefly, allowed to rest on ice for 30 minutes, and centrifuged at 6,000 rpm in an Eppendorf centrifuge. The supernatant was used for the ELISA. Following overnight binding of APP and APP metabolites to the capture antibody (C/1/6.1), the wells were washed twice with phosphate buffered saline (PBS) containing 0.5% Triton X-100®/0.05% Tween-20 followed by two washes with PBS. A solution containing 20 mM Na phosphate, 2 mM EDTA, 400 mM NaCl, and 1% BSA, pH 7.0 was then added to the wells for 1 hour at room temperature.
(§5) APP and cell-associated APP metabolites were detected by incubating for 4 hours at room temperature with horseradish peroxidase (HRP)-conjugated C2/7.1 or JRF/AβN/25 diluted in 20 mM Na phosphate, 2 mM EDTA, 400 mM NaCl, 1% BSA, pH 7.0. Thereafter, the wells were again washed twice with phosphate buffered saline (PBS) containing 0.5% Triton X-100®/0.05% Tween-20, followed by two washes with PBS. ELISA plates were developed using a color reaction (TMB Microwell Peroxidase Substrate System, Kirkegaard & Perry, Gaithersburg, MD) and the OD450 was read. ELISA signals are reported as the mean ±SE of two or more wells in femtomoles per ml relative to standard.
(§6) Preparation of cell lysates for ELISA. Cells were seeded into 6-well dishes and allowed to settle overnight. […]

[2] = test system: APP holoprotein and all CTFs in L/APP cells; assay: APP/total CTF ELISA (C1/6.1 capture, C2/7.1 detection) on L/APP cell lysates; details: for cellular APP levels (APP/total CTF) relative to untreated control cells: 10 μg/ml for 6 hours (FIG. 10A)
Procedure: as §1, §2, §3, §4, §5, §6

[3] = test system: Aβ1-40 secreted by L/APP cells; assay: Aβ1-40 ELISA of growth media; details: 10 μg/ml, 6 hour incubation (FIG. 10C)
Procedure: L/APP cells were plated at equal density and APP expression was induced. Cells were then incubated for 6 hours without treatment, or with the addition of 10 μg/ml cyclohexamide or 10 μg/ml 3-methyl adenine (3MA). APP/total CTF levels (FIG. 10A) and βCTF levels (FIG. 10B) in cell lysates were then determined by ELISA. Aβ1-40 (FIG. 10C) and Aβ1-42 (FIG. 10D) levels secreted into the growth media during this 6 hour incubation were determined by ELISA (C. Janus et al., 2000, Nature, 408(6815):979 982). Data are expressed as a percentage of, the level seen in untreated control cells for each assay.
In addition, Aβ levels in the growth media were examined from these test cells. […] Again, the reduction in Aβ generation obtained with cyclohexamide treatment is due to non-specific cytotoxicity, while the reduction in Aβ generation obtained following 3MA treatment is linked to a specific reduction in βCTF generation.

[4] = test system: APP holoprotein, αCTF and βCTF in L/APP cells; assay: Metabolic pulse-chase labeling and immunoprecipitation of APP and CTFs; details: for levels of αCTFs and βCTFs after 1 hour chase (C1/6.1 immunoprecipitation): 10 μM, 3 hours pretreatment plus pulse and chase (FIG. 1)
Procedure: Metabolic labeling, immunoprecipitation and Western blot analysis. To detect APP and CTFs, 5×10^5 cells were seeded onto 35-mm diameter tissue culture dishes followed by induction of human APP695 expression with 20 mM butyrate for 24 hours (P. M. Mathews et al., 1992, J. Cell. Biol., 118(5):1027-1040; P. M. Mathews et al., 2000 Mol Med., 6(10)878-891). Cultures were methionine/cysteine starved for 20 minutes, pulse-labeled for 15 minutes with 100 μCi/ml TRANS^35S-LABEL (Dupont-NEN), washed, and chased in complete medium containing 2 mM unlabeled methionine (P. M. Mathews et al., 1992, J. Cell. Biol., 118(5):1027-1040). Calpain inhibitors, as described herein, were added to the growth medium 3 hours prior to methionine/cysteine starvation and then throughout pulse-labeling and chase.
Cell lysates (prepared in 1% Triton X-100, 140 mM NaCl, 25 mM Tris pH 7.4, 0.5 mM EDTA, 10 mM methionine and protease inhibitors; (P. M. Mathews et al., 1992, J. Cell. Biol., 118(5):1027-1040; A. Beggan et al., 1996, J. Biol. Chem., 271(34):20895-20902) were subjected to immunoprecipitation with various monoclonal antibodies as described in Example 2. Immunoprecipitated proteins were sized by SDS-PAGE and labeled proteins were visualized by exposure to x-ray film and analyzed quantitatively using a Storm 840 phosphorimager (Molecular Dynamics/Amersham Biosciences, Sunnyvale, Calif. and/or by scan analysis (NIH Image).
To determine whether a particular monoclonal antibody detected APP holoprotein and/or αCTF and/or βCTF or both, L cells overexpressing human APP695 (L/APP cells) were metabolically labeled for 15 minutes, and then were chased for 1 hour (FIG. 1, lanes 1-6).
Thus, in addition to control conditions, cells were treated for 3 hours prior to, as well as during, the pulse and chase periods with the indicated calpain inhibitors (FIG. 1, lanes 7-18) to increase the levels of metabolically labeled CTFs prior to immunoprecipitation. Equal volumes of detergent lysates prepared from the pulse and chase periods were subjected to immunoprecipitation with each of the monoclonal antibodies and labeled APP species were resolved on 4-20% gradient SDS-PAGE.
The pulse-chase experiment shown in FIGS. 2A and 2B was designed to determine if C1/6.1 was able to detect other species of CTFs (e.g. the γCTF). Accordingly, L/APP cells were pulse-labeled for 15 minutes and chased for the indicated times up to 6 hours prior to immunoprecipitation of lysates with C1/6.1.

[5] = test system: APP holoprotein and all CTFs in parental L cells; assay: APP/total CTF ELISA on parental L cell lysates; details: 10 μM calpeptin 6 hours (FIG. 7B)
Procedure: as §1
Sandwich ELISAs. […]
APP and cell-associated APP metabolites were detected by incubating for 4 hours at room temperature with horseradish peroxidase (HRP)-conjugated C2/7.1 or JRF/AβN/25 diluted in 20 mM Na phosphate, 2 mM EDTA, 400 mM NaCl, 1% BSA, pH 7.0. […] ELISA plates were developed using a color reaction (TMB Microwell Peroxidase Substrate System, Kirkegaard & Perry, Gaithersburg, MD) and the OD450 was read. […]

APP CTFs in L/APP cells = assay: Western blot analysis using C1/6.1; details: 10 μm calpeptin 6 hours (FIG. 5A)
Procedure: For Western blot analysis, protein concentration in cell lysates was determined (BioRad DC Protein Assay, BioRad, Rockville Center, N.Y.), and equal amounts of proteins were separated by SDS-PAGE and transferred to PVDF membrane. Membranes were incubated in C1/6.1 (2 μg/ml) overnight, washed, and incubated with HRP-conjugated goat anti-mouse IgG for 1.5 hours. Membranes were incubated in ECL substrate (Amersham, Arlington Heights, Ill.) and exposed to x-ray film.
In this rab5 overexpression experiment, L/APP cells were transiently-transfected with no DNA (FIG. 5A, lanes 1 and 2), or rab5 cDNA (FIG. 5A, lanes 3-5) and the levels of APP holoprotein and CTFs were determined by Western blot analysis using C1/6.1 (FIG. 5A).

[6] = 75 μg/ml cyclohexamide 6 hours, versus control

SMILES: Cn1cnc(N)c2ncnc1-2 [3MA, 3-methyl adenine]
- reduction of βCTF levels relative to control [1]: 50%
- cellular APP levels (APP/total CTF) relative to untreated control cells [2]: did not reduce cellular APP levels
- Aβ1-40 levels in growth media relative to control [3]: reduction in Aβ1-40 levels relative to control

SMILES: CC(C)[C@H](NC(=O)OCc1ccccc1)C(=O)N[C@H](C=O)Cc1ccccc1 [calpain inhibitor III] (Cbz-Val-Phe-aldehyde)
- levels of αCTFs and βCTFs after 1 hour chase (C1/6.1 immunoprecipitation) [4]: substantial and apparently proportionate increase in the levels of both αCTFs and βCTFs

SMILES: CCCC[C@@H](C=O)NC(=O)[C@H](CC(C)C)NC(=O)OCc1ccccc1 [calpeptin]
- APP/total CTF ELISA signal [5]: increased the signal in the L cells, although not to a statistically significant degree
- βCTF levels ([1]; 10 μM calpeptin 6 hours): 5.4 fmol/mL
- amount of βCTFs detected by ELISA ([1]; 10 μM calpeptin 6 hours, untreated 16.1 (FIG. 5B)): 26.0 fmol/mL
- βCTF levels detected by ELISA ([1]; 10 μM calpeptin for 6 hours, untreated 5.8±0.3 (FIG. 4)): 10.0 ± 0.6 fmol/mL
- APP/total CTF ELISA signal ([2]; 10 μM calpeptin 6 hours (FIG. 7B)): greatly increased the ELISA signal
- change in APP/total CTF levels ([2]; 10 μM calpeptin 6 hours (FIG. 8B)): smaller relative increase in APP/total CTF levels
- levels of CTFs by Western blot (APP CTFs in L/APP cells): greatly increased the levels of CTFs detected
- generation of α and βCTFs during the initial 1 hour of chase ([4]; 10 μM calpeptin (FIG. 2B)): substantially increased the generation of both α and βCTFs
- turnover of CTFs ([4]; 10 μM calpeptin (FIG. 2B)): did not appear to reduce the turnover of CTFs
- turnover of APP holoprotein ([4]; 10 μM calpeptin, chase up to 6 hours (FIG. 2A)): unchanged
- levels of αCTFs and βCTFs after 1 hour chase (C1/6.1 immunoprecipitation) [4]: substantial and apparently proportionate increase in the levels of both αCTFs and βCTFs

SMILES: C[C@@H]1C[C@@H]([C@H](O)CC2CC(=O)NC(=O)C2)C(=O)[C@@H](C)C1 [cyclohexamide]
- reduction of βCTF levels relative to control [1]: reduced βCTF levels somewhat more
- βCTF levels ([1]; 75 μg/ml cyclohexamide 6 hours): 0.6 fmol/mL
- reduction of βCTF levels [1, 6]: 78%
- cellular APP levels (APP/total CTF) relative to untreated control cells [2]: cyclohexamide treatment did
- APP/total CTF levels ([2]; 75 μg/ml cyclohexamide 6 hours, control 608 (FIG. 8B)): 74 fmol/mL
- reduction of APP/total CTF levels [2, 6]: 88%
- Aβ1-40 levels in growth media relative to control [3]: reduction in Aβ1-40 levels relative to control
